The values below come from patent publication US20080027098A1, “Derivatives of alpha-phenylthiocarboxylic and alpha-phenyloxy-carboxylic acids useful for the treatment of diseases responding to PPARalpha activation” (SIGMA-TAU INDUSTRIE FARMACEUTICHE RIUNITE S.p.A., priority 2002, published 2008).

Marks after values point to notes of the source that are not given here.

The test system of one data set is db/db mice. Put plainly: Increase in HDL-cholesterol levels in db/db mice. It counts as in vivo. Particulars: for Increase in HDL-cholesterol levels (%): further experiment, oral twice daily 14 days, dose equimolar to 25 mg/kg of ST2195, 8 hours after last treatment. As for the experimental part: Increase in HDL-Cholesterol Levels in db/db Mice
In this experiment db/db mice were used in which PPARα expression is above normal (Memon et al., Endocrinology 2000, 4021-4031) and HDL-cholesterol levels are substantially elevated (Silver et al., J Biol Chem 1999, 274: 4140-4146).
The C57BL[KsJ db/db mice were acclimatised for one week in standard conditions (22±2° C.; 55±15% humidity; 15-20 air changes/hour; 12 hours light/darkness cycle with light from 7.00 a.m. to 7 p.m.) with a standard 4 RF21 diet (Mucedola). Blood samples were taken in post-absorption conditions (fasting from 8.30 a.m. to 4.30 p.m.) from the caudal vein with the aid of a Jelco 22G catheter (Johnson and Johnson). Glucose, insulin, triglyceride, cholesterol, free fatty acid and urea levels were checked in plasma for a homogeneous distribution of the mice in the treatment groups.
At the beginning of treatment the animals' body weight was checked and arrangements were made to monitor their water and feed consumption. […]
The compound tested, obtained as described in example 4 (ST 1929) was administered at the dose of 24 mg/kg in 10 ml/kg of vehicle (1% CMC containing Tween 80 0.5% in deionized H2O).
The other compounds tested were also administered at a dose equivalent to that in example 4.
Ciprofibrate, a known PPARα agonist (Varanasi et al., J Biol Chem 1996, 271: 2147-2155; Latruffe et al. Cell Biochem Biophys 2000, 32 Spring: 213-220) was administered at the dose of 20 mg/kg (Dwivedi et al., Toxicol Pathol 1989, 17: 16-26; Qi et al., Proc Natl Acad Sci USA 1999, 96: 1585-1590).
The animals were sacrificed (by decapitation) in conditions of post-absorption (fasting from 9.30 a.m. to 4.30 p.m.) 7 hours after the last treatment. The levels of a number of important lipid and carbohydrate metabolism parameters were determined in the serum.
The HDL-cholesterol levels were measured by treating the serum with phosphotungstic-acid-based precipitating reagent (ABX Diagnostics) which removes the chylomicrons, very low density and low density lipoproteins and determining the HDL-cholesterol levels in the supernatant with the aid of the Cholesterol Kit (ABX Diagnostics) and the Cobas Mira S Autoanalyzer (Roche).
In a further experiment, where the above reported ST2195 was used as reference compound, db/db mice were treated orally twice daily (8.30 a.m. and 6.30 p.m.) for 14 days with the test items (equimolar to 25 mg/kg of ST2 195) giving the following results reported in Table 3: […]

Another data set addresses T1, Gal4DBD/PPARαLBD (Homo sapiens, UniProt Q07869).
T1 construct: expressed in transfected cells; host or cells: COS-7 (monkey kidney fibroblasts)
T1 sequence (Q07869 239-466 limits assumed): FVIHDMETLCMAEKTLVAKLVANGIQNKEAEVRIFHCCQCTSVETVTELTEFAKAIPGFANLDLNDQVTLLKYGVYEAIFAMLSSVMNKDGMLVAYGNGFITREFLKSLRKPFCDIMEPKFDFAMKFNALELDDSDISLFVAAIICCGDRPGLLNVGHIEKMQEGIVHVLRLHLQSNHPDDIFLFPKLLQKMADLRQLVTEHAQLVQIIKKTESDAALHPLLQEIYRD
Put plainly: Transient transfection of COS-7 cells, Gal4DBD/PPARαLBD transactivation, CAT reporter (II method). It counts as cell-based. Particulars: for activation at 2 µM / activation at 20 µM / activation at 100 µM: read-out: percentage activation of the CAT reporter gene compared to reference compound WY-14.643 2 μM taken as 100%. The text has this:
Transient Transfection of Eukaryotic Cells to Evaluate the Agonist Activity of PPARα Ligands (II Method)
An alternative transactivation system, which differs mainly in the way the receptor is positioned onto the DNA, and depending on how the event of ligand binding is translated into transcriptional activation, was used.
In this model eukaryotic cells were transiently transfected with an expression vector encoding a fusion protein between the DNA binding domain (DBD) of the yeast Gal4 transcription factor and the ligand binding domain (LBD) of the PPARα (Gal4DBD/PPARαLBD). The reporter vector containing 5 copies of the high affinity binding site for Gal4 (named UAS, upstream activating sequence) upstream of a strong viral promoter linked to the reporter gene chloramphenicol acetyltransferase (CAT), was co-transfected. This model offered some advantages, the most important of which was the absence of interference by endogenous receptors.
Besides expression and reporter vectors, cells were transfected with a control vector pCH110 that encodes the β-galactosidase enzyme to correct for differences in transfection efficiency.
A monkey kidney fibroblast cell line (COS-7) was used. Cells were co-transfected with the plasmid carrying the gene-reporter, the expression plasmid encoding the fusion protein Gal4DBD/PPARαLBD, and the control vector pCH110. Cells were then treated with increasing concentrations of test compounds and the CAT activity was measured. Untreated cells were used as control.
Monkey kidney fibroblasts (COS-7) were routinely grown in DMEM (Dulbecco's modified Eagle's medium) supplemented with 3.7 g/l sodium bicarbonate, 4 mM L-glutamine, 4.5 g/l glucose, 1 mM sodium piruvate and 10% v/v foetal bovine serum, in the presence of streptomycin 100 μg/ml and penicillin 100 U/ml.
COS-7 cells were transiently transfected by using the multi-component lipid-based FuGENE6 Transfection Reagent that complexes with and transports DNA into the cells during transfection. Cells were seeded at 1.2×10^5 cells/well, in 12-well plates, and cultured overnight at 37° C. in a 5% v/v carbon dioxide atmosphere. Two hours before transfection the culture medium was replaced by fresh serum-free medium and then transfection was performed with FuGENE6 Transfection Reagent according to the instructions of the manufacturer. Briefly, the transfection mixture containing (for each well) 0.8 μg of the expression vector, 1.6 μg of the reporter vector, 0.8 μg of the control vector and 9 μl of FuGENE6 Transfection Reagent was added directly to the cells in the presence of serum-free medium. After 5 hours the transfection medium was replaced by 1 ml of the complete culture medium with or without the test molecules at 3 different concentrations (2, 20 and 100 μM). 2 μM Wy-14,643, a known PPARα ligand, was used as positive control.
After 48 h, the cells were washed twice with 1 ml phosphate buffer (PBS) and then harvested by scraping them in TEN buffer (Tris [hydroxymethyl] aminomethane 10 mM pH 8, ethylenediamine tetraacetic acid 1 mM, pH 8, sodium chloride 0.1 M). Following centrifugation at room temperature, for 3 min at 1000 revs per minute (rpm), cells were resuspended with 60 μl of Lysis buffer (0.25M Tris-HCl, pH 8) and lysed by three rapid freeze/thaw cycles (three 5-minute cycles). Cell debris was then removed by centrifugating at 4° C., for 15 min at 15.000 revs per minute (rpm),. Glycerol (final 10% v/v) and β-mercaptoethanol (final 5 mM) were then added (final volume 75 μl) and the cell extracts were stored at −80° C. until assayed.
The CAT activity assay was performed as follows: 20 μl of cell lysate (pre-warmed at 65° C. for 10 min to deactivate internal deacetylase enzymatic activity) were added to 10 μl of 3.5 mg/ml n-butirryl-CoA, 5 μl ([…]) of [14C]-chloramphenicol and 65 μl of distilled H20 and incubated 2 h at 37° C. Reaction was blocked by adding 200 μl of the solution xylene/2,6,10,14 tetramethyl-pentadecane (in a 1:2 v/v mixture). […]
A general note: In a reporter assay the amount or activity of a reporter protein is the signal.

For `COC(=O)C(C)(C)Sc1cccc(OC(=O)Nc2ccc(C(F)(F)F)cc2)c1`, the melting point (usually the temperature of the solid-liquid transition) was 66 to 67 °C.

For `COC(=O)C(C)(C)Sc1ccc(OC(=O)Nc2ccc(C(F)(F)F)cc2)cc1`, the melting point fell in the range of 110 to 111 °C.

For the compound `CC(C)(Oc1ccc(CCNC(=O)c2ccc(Cl)cc2)cc1)C(=O)O` [Bezafibrate, reference compound], the “Increase in HDL/cholesterol levels (%)” value in the data set with db/db mice (24.8 mg/kg, 25 days) is recorded as “+14%”.

As for `CC(C)(Oc1ccc(C2CC2(Cl)Cl)cc1)C(=O)O` (stereo not shown) [Ciprofibrate, reference compound], the “Increase in HDL/cholesterol levels (%)” value in the data set on db/db mice (oral twice daily, 20 mg/kg, 14 days) is on record as “+52 ▴ %”.

In the case of `COC(=O)C(C)(C)Sc1ccc(O)cc1` [ST1923, methyl 2-(4-hydroxyphenylthio)isobutyrate], the melting point lay within 110 to 112 °C.

In the case of `COC(=O)C(C)(C)Sc1ccc(OCCc2ccc(Cl)cc2)cc1` [ST1929], the “Increase in HDL/cholesterol levels (%)” value in the data set on db/db mice (oral twice daily, 24 mg/kg, 10 days) is “+80 ▴ %”.

`CC(C)(Sc1ccc(O)cc1)C(=O)O` [ST1981, 2-(4-hydroxyphenylthio)isobutyric acid] had a melting point of 152 to 154 °C.

For `COC(=O)C(C)(C)Sc1ccc(OCCn2ccc3ccccc32)cc1` [ST1983], the “Increase in HDL-cholesterol levels (%)” value in the data set on db/db mice is recorded as “+69Δ %”. The “percentage activation of the CAT reporter gene compared to reference compound WY-14.643 2 μM taken as 100%” value on Gal4DBD/PPARαLBD (2 μM) was 150%; on Gal4DBD/PPARαLBD (20 μM), 391.2%; at Gal4DBD/PPARαLBD (100 μM), 1372%.

With `COC(=O)C(C)(C)Sc1ccc(OCCc2ccc3ccccc3c2)cc1` [ST2011, methyl 2-[4-[2-(2-naphthyl)ethoxy]phenyl-thio]isobutyrate], the melting point lay within 56 to 57 °C.

`COC(=O)C(C)(C)Sc1cccc(O)c1` [ST2047, methyl 2-(3-hydroxyphenylthio)isobutyrate]: the melting point is 41.5 to 42.5 °C.

With `COC(=O)C(C)(C)Sc1cccc(OCCc2ccc3ccccc3c2)c1` [ST2167, methyl 2-[3-[2-(2-naphthyl)ethoxy]phenyl-thio]isobutyrate], in the data set with db/db mice (26.1 mg/kg, 25 days), the “Increase in HDL/cholesterol levels (%)” value was “+29ρ %”. Moreover, the activation at 2 µM at Gal4DBD/PPARαLBD (2 μM) was 98.1%. The activation at 20 µM at Gal4DBD/PPARαLBD (20 μM) came out at 360%. Besides, the activation at 100 µM on Gal4DBD/PPARαLBD (100 μM) was 463%.

Consider `COC(=O)C(C)(C)Sc1cccc(OCCc2ccc(Cl)cc2)c1` [ST2195, methyl 2-[3-[2-(4-chlorophenyl)ethoxy]phenyl-thio]isobutyrate], for which, in the data set on db/db mice (25.0 mg/kg, 25 days), the “Increase in HDL/cholesterol levels (%)” value was “+20ρ %”. The “Increase in HDL-cholesterol levels (%)” value in the data set on db/db mice is given as “+67Δ %”.

Regarding `COC(=O)C(C)(C)Sc1cccc(OCCc2ccc(Cl)cc2Cl)c1` [ST2534, methyl 2-[3-(2-(2,4-dichloro-phenyl)ethoxy)phenylthio]isobutyrate], the “Increase in HDL-cholesterol levels (%)” value in the data set on db/db mice is listed as “+61Δ %”. The activation at 2 µM at Gal4DBD/PPARαLBD (2 μM) is 113%. Moreover, the activation at 20 µM on Gal4DBD/PPARαLBD (20 μM) is 285%. On Gal4DBD/PPARαLBD (100 μM), the activation at 100 µM came to 421%.

For the compound `COC(=O)C(C)(C)Sc1ccc(OCCn2ccc3cc(OCc4ccccc4)ccc32)cc1` [ST2562, methyl 2-[4-[2-(1-(5-benzyloxy)indolyl)ethoxy]phenyl-thio]isobutyrate], on Gal4DBD/PPARαLBD (2 μM), the activation at 2 µM was 139%. In addition, the activation at 20 µM on Gal4DBD/PPARαLBD (20 μM) was 291%. Also, on Gal4DBD/PPARαLBD (100 μM), the activation at 100 µM turned out to be 249%.

Turning to `COC(=O)C(C)(C)Sc1ccc(OCCn2ccc3cc(OC)ccc32)cc1` [ST2577, methyl 2-[4-[2-(1-(5-methoxy)indolyl)ethoxy]phenyl-thio]isobutyrate], on Gal4DBD/PPARαLBD (2 μM), the activation at 2 µM was 98.6%. For the same compound, the activation at 20 µM on Gal4DBD/PPARαLBD (20 μM) was determined as 269%. Also, the activation at 100 µM on Gal4DBD/PPARαLBD (100 μM) turned out to be 255%.

On to `CC(C)(Sc1ccc(OCCn2ccc3ccccc32)cc1)C(=O)O` [ST2622, 2-[4-[2-(1-indolyl)ethoxy]phenyl-thio]-isobutyric acid], for which the “Increase in HDL-cholesterol levels (%)” value in the data set on db/db mice is “+54Δ %”. Also, on Gal4DBD/PPARαLBD (2 μM), the activation at 2 µM was 105%. The activation at 20 µM on Gal4DBD/PPARαLBD (20 μM) is 231%. For the same compound, the activation at 100 µM on Gal4DBD/PPARαLBD (100 μM) came to 311%.

Turning to `CC(C)(Sc1cccc(OCCc2ccc(Cl)cc2Cl)c1)C(=O)O` [ST2653, 2-[3-(2-(2,4-dichlorophenyl)ethoxy)phenyl-thio]-2-isobutyric acid], at Gal4DBD/PPARαLBD (2 μM), the activation at 2 µM was found to be 132%. Also, the activation at 20 µM on Gal4DBD/PPARαLBD (20 μM) turned out to be 199%. The activation at 100 µM at Gal4DBD/PPARαLBD (100 μM) amounted to 204%.

As to `COc1ccc2c(ccn2CCOc2ccc(SC(C)(C)C(=O)O)cc2)c1` [ST2733, 2-[4-[2-(1-(5-methoxy)indolyl)ethoxy]phenyl-thio]isobutyric acid], the “Increase in HDL/cholesterol levels (%)” value in the data set with db/db mice (second experiment, 26.4 mg/kg, 16 days) was “+70[…] %”. For the same compound, the activation at 2 µM on Gal4DBD/PPARαLBD (2 μM) came to 77.2%. Besides, the activation at 20 µM on Gal4DBD/PPARαLBD (20 μM) was determined as 193%. Besides, the activation at 100 µM at Gal4DBD/PPARαLBD (100 μM) amounted to 239%.

As for `CC(C)(Sc1ccc(OCCn2ccc3cc(OCc4ccccc4)ccc32)cc1)C(=O)O` [ST2740, 2-[4-[2-(1-(5-benzyloxy)indolyl)ethoxy]phenyl-thio]isobutyric acid], the activation at 2 µM at Gal4DBD/PPARαLBD (2 μM) is 150%. Besides, the activation at 20 µM at Gal4DBD/PPARαLBD (20 μM) was 177%. The activation at 100 µM on Gal4DBD/PPARαLBD (100 μM) was determined as 115%.
